Data from patent US10085966B2, “Compositions and methods for skin care” (Antipodean Pharmaceuticals, Inc., priority 2008, dated 2018).

Key:
Assay type in all cases: cell-based
ERK1 = experiment: UV irradiation-induced ERK1 phosphorylation in cultured human keratinocytes
Excerpt: (§1) Ultraviolet (UV) irradiation causes skin photoaging and has been reported to activate mitogen-activated protein (MAP) kinase signal transduction pathways. (Fisher et al., 1998 J. Clin. Invest. 101:1432; Kang et al., 2003 J. Invest. Dermatol. 120:835). The mechanism of UV activation of the epidermal growth factor receptor (EGFR) in such pathways remains unknown, although a role for ROS has been implicated (Xu et al., 2006 Am. J. Pathol. 169:823; Xu et al., 2006 J. Biol. Chem. 281:27389). This Example describes an in vitro model of UV-induced signal transduction in human keratinocytes. Publications describing exemplary materials and methods that were adapted to perform these experiments include e.g., Pilcher et al., 1997 J. Cell Biol. 137:1445; Notary et al., 2000 J. Cell Biol. 149:1309; Netzel-Arnett et al., 2002 J. Biol. Chem. 277:45154; Fisher et al., 2002 Arch Dermatol. 138:1462; Kang et al., 2003 J. Invest. Dermatol. 120:835; Xu et al., 2006 Am J Pathol. 169:823; Xu et al., 2006 J Biol. Chem 281:27389.
(§2) Exposure of cultured human keratinocytes to UV irradiation activated ERK MAP kinase, as evidenced by elevated levels of phosphorylated ERK polypeptide in immunoprecipitates from UV-irradiated keratinocytes relative to untreated control keratinocytes. (FIG. 4)

ERK2 = experiment: UV irradiation-induced ERK2 phosphorylation in cultured human keratinocytes
Excerpt: as §1, §2

human skin fibroblasts = experiment: ROS production by human skin fibroblasts in collagenase-fragmented three-dimensional collagen lattices; conditions: 1 nM, relative to controls (FIG. 2)
Excerpt: (§3) In photoaged human skin in vivo, skin wrinkling was accompanied by elevated collagenase levels that stimulated collagen fragmentation and ROS production. This Example describes an in vitro model of skin collagen fragmentation that was created and tested for the effects of antioxidant compounds. Materials and methods for preparing three-dimensional extracellular matrix (ECM) collagen lattices, for culturing skin fibroblasts and keratinocytes thereupon, and for treating such matrices with, and characterizing the effects on them of, matrix metalloproteinases (MMPs) have been described (see, e.g., Pilcher et al., 1997 J. Cell Biol. 137:1445; Notary et al., 2000 J. Cell Biol. 149:1309; Netzel-Arnett et al., 2002 J. Biol. Chem. 277:45154; Fisher et al., 2002 Arch Dermatol. 138:1462; Kang et al., 2003 J. Invest. Dermatol. 120:835; Xu et al., 2006 Am J Pathol. 169:823; Xu et al., 2006 J Biol. Chem 281:27389).
(§4) Human skin fibroblasts were cultured in three-dimensional collagen lattices, which mimicked the dermal extracellular matrix. In intact collagen lattices, dermal fibroblasts spread by attachment to the collagen, and produced relatively low levels of the collagenase known as matrix metalloproteinase-1 (MMP1). […]

ERK MAP kinase = experiment: UV irradiation-induced activation of ERK MAP kinase in cultured human keratinocytes; conditions: pretreatment of keratinocytes with the indicated concentrations (FIG. 4)
Excerpt: as §1, §2

[1] = tested on: matrix metalloproteinase-1 (MMP1); experiment: MMP1 expression by human skin fibroblasts in collagenase-fragmented three-dimensional collagen lattices; conditions: 1 nM, relative to controls (FIG. 3)
Excerpt: as §3, §4

[2] = exposure to MitoQ10 (FIG. 4 lower panel)
[3] = incubation of keratinocytes prior to UV irradiation (FIG. 4 upper panel)

COC1=C(OC)C(=O)C(CCCCCCCCCC[P+](c2ccccc2)(c2ccccc2)c2ccccc2)=C(C)C1=O.CS(=O)(=O)[O-] [MitoQ10 mesylate, [10-(4,5-dimethoxy-2-methyl-3,6-dioxo-1,4-cyclohexadien-1-yl)decyl] triphenylphosphonium methanesulfonate]
amount of Erk1 in the keratinocytes (ERK1; [2]): not altered | ERK1 phosphorylation (ERK1; [3]): significantly reduced | amount of Erk2 in the keratinocytes (ERK2; [2]): not altered | ERK2 phosphorylation (ERK2; [3]): significantly reduced | oxidant (ROS) levels (human skin fibroblasts): significantly reduced | activation of ERK MAP kinase by subsequent UV irradiation (ERK MAP kinase): substantially inhibited | matrix metalloproteinase-1 expression, MMP1 mRNA [1]: significantly reduced | matrix metalloproteinase-1 expression, MMP1 protein [1]: significantly reduced
